Laboratory results taken from PMC5241826, “An extended N-H bond, driven by a conserved second-order interaction, orients the flavin N5 orbital in cholesterol oxidase” (Scientific Reports, 2017).

Molecular target: T1, cholesterol oxidase (COx; H/D-COx) (Streptomyces sp. SA-COO, UniProt P12676)
T1 construct: gene choA; secreted mature form; H/D-exchanged crystal
Assay: joint X-ray/neutron crystal structure, […] A neutron, […] A X-ray
Type: binding
Conditions: H/D-exchanged crystal (D2O soak), room-temperature neutron data, crystallised at pH 5.2; Gly120 N-H to FAD N5 hydrogen bond

T1 sequence (P12676 43-546): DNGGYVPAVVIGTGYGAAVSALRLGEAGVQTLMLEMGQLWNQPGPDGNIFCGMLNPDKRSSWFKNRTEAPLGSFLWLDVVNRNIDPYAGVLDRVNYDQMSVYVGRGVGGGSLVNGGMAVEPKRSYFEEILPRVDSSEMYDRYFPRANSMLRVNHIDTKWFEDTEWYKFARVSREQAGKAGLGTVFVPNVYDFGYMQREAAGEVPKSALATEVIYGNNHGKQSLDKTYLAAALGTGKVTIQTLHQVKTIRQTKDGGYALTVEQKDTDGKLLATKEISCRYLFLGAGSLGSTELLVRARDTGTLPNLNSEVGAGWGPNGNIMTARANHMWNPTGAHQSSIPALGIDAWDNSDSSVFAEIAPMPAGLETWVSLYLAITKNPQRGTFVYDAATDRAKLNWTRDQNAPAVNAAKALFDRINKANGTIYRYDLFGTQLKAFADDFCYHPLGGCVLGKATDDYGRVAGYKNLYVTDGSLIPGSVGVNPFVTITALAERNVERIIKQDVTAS

Cc1cc2nc3c(=O)[nH]c(=O)nc-3n(C[C@H](O)[C@H](O)[C@H](O)COP(=O)(O)OP(=O)(O)OC[C@H]3O[C@@H](n4cnc5c(N)ncnc54)[C@H](O)[C@@H]3O)c2cc1C [FAD]
joint X-ray/neutron crystal structure, 2.2 A neutron, 1.5 A X-ray: one involved in a conserved hydrogen bond between Gly120-NH and FAD-N5
